Assay results published in PubChem BioAssay AID1288 (Columbia University Molecular Screening Center, 2008).
Activity calls are given as the source filed them. The rule behind the calls is not given here.

Assay: inhibitors of TNFa-induced E-selectin expression, confirmation, imaging, retest plus dose response, cell count (AID 1288);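 note: 0% = stimulated vehicle wells and 100% = unstimulated vehicle wells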
Conditions: human endothelial cells, TNFa-induced E-selectin, imaging; at 2 µM; stronger effect = higher value

Structure (SMILES)	inhibition
Cc1cc(C)cc(C(=O)Oc2coc(CSc3nnc(NC(=O)C4CC4)s3)cc2=O)c1	6.25% (inactive)
CCc1cc[n+](CC(=O)Nc2ccc(Cl)cc2Cl)cc1	5.98% (inactive)
COc1ccc(CCn2c(=S)[nH]c3cc(C(=O)NCc4ccco4)ccc3c2=O)cc1OC	11% (inactive)
CCN1CCN(Cc2ccc(C)cc2)CC1	6.18% (inactive)
Cn1c(O)c(C(=N)COc2cccc(Cl)c2)c(=O)n(C)c1=O	18.8% (inactive)
Cn1c(SCC(=O)N2CCOCC2)nnc1-c1cccc(NC(=O)c2ccccc2)c1	-2.57% (inactive)
CCC(C)c1ccccc1OCCCCN1CCCC1 (stereo unspecified)	-2.07% (inactive)
Cc1cc(C)c2cc(CN(Cc3ccc4c(c3)OCO4)Cc3nnnn3Cc3ccco3)c(=O)[nH]c2c1	-1.09% (inactive)
Cc1c(N=C/C=C2\N(C)c3ccccc3C2(C)C)c(=O)n(-c2ccccc2)n1C	1.21% (inactive)
CCOC(=O)c1ccc(Nc2cc(C)nc(N3CCOCC3)n2)cc1	5.21% (inactive)
O=[N+]([O-])c1ccc(O)c(/C=N/Nc2ccc(Cl)nn2)c1	3.18% (inactive)
CN(C)S(=O)(=O)c1cc(NC(=O)CN2C(=O)NC3(CCCc4ccccc43)C2=O)ccc1Cl (stereo unspecified)	4.67% (inactive)
COc1ccc(-n2c(C)cc(C(=O)COc3ccc(C)nc3[N+](=O)[O-])c2C)cc1	31.4% (inactive)
COC(=O)c1c(-c2ccccc2)csc1NC(=O)c1ccco1	14.7% (inactive)
Clc1ccc(Nc2nc3cccnc3s2)cc1	7.79% (inactive)
CC(C)Cn1cnc2c1c(=O)n(CC(=O)Nc1ccc3c(c1)OCO3)c(=O)n2Cc1ccccc1	14.6% (inactive)
O=c1[nH]cnc2cc(-c3ccccc3)sc12	7.67% (inactive)
CCOC(=O)N1CCC(N(CCOC)C(=O)Nc2ccc(Cl)cc2)CC1	2.12% (inactive)
COc1ccc2cc(S(=O)(=O)N3CCN(C)CC3)ccc2c1	16.8% (inactive)
O=C(/C=C/c1ccccc1)Nc1ncn[nH]1	5.62% (inactive)
COc1ccc(NC(=O)CN(C)CC(=O)Nc2ccccc2SC)cc1	-3.18% (inactive)
CCCOC(=O)c1ccc(Cl)c(NC(=O)c2ccc(-c3ccccc3)cc2)c1	1.66% (inactive)
Cc1oc2c(C)c(O)ccc2c(=O)c1-c1cnn(-c2ccccc2)c1	-7.41% (inactive)
CC(NC(=O)COc1cccc(Br)c1)C(=O)O (stereo unspecified)	24.6% (inactive)

Structure (SMILES)	inhibition
CCOC(=O)c1cc(-c2ccccc2)sc1NC(=S)Nc1cccc(C)n1	-0.25% (inactive)
CN(C)c1ccc(NC(=O)COC(=O)Cn2nnc3ccccc32)cc1	0.53% (inactive)
N/C(Cc1ccc([N+](=O)[O-])cc1)=N\OC(=O)COc1ccc2ccccc2c1	12.6% (inactive)
N#CC(C#N)=C/C(C#N)=C(/N)N1CCN(c2ccc(Cl)cc2)CC1	6.82% (inactive)
c1nc(NCCN2CCOCC2)c2sc3nc(N4CCOCC4)c4c(c3c2n1)CCC4	34.1% (inactive)
Cc1cc(C)nc(/N=C2\NC(=O)CC(C(=O)O)N2c2ccc(Cl)cc2Cl)n1 (stereo unspecified)	0.87% (inactive)
C=CCn1c(SCC(=O)NC)nc2sc3c(c2c1=O)CCC3	4.27% (inactive)
OCCNCCOc1ccc(Cl)c(Cl)c1	1.74% (inactive)
Cc1cccc(OCCCC(=O)O)c1	4.01% (inactive)
CCOC(=O)Cc1c(C)nc2c(-c3ccccc3)c[nH]n2c1=O	0.71% (inactive)
COc1ccc2c(c1OC)C(=O)OC2c1c(O)nc(SC)n(-c2ccccc2)c1=O (stereo unspecified)	4.68% (inactive)
COc1cccc(C(C)NC(=O)c2c(F)cccc2Cl)c1 (stereo unspecified)	21.5% (inactive)
CCOc1ccc(OCC)c(NC(=O)CN2CCN(c3cccc(C)c3)CC2)c1	-3.01% (inactive)
COc1ccc(C(=O)C(CO)Oc2ccccc2OC)cc1OC (stereo unspecified)	1.41% (inactive)
CCCCOc1ccc(/C=C/C(=O)OCC(=O)NC(=O)NCC(C)C)cc1OCC	15.1% (inactive)
COc1ccc(-n2nc3c(c2NC(=O)c2cc(Br)ccc2Cl)CS(=O)C3)cc1 (stereo unspecified)	-1.7% (inactive)
CCN(C(=O)COC(=O)c1cc(C)n(-c2ccc(F)cc2)c1C)C1CCS(=O)(=O)C1 (stereo unspecified)	2.1% (inactive)
O=C(NC(=O)c1cccc(OC(F)(F)C(F)F)c1)OC1CCS(=O)(=O)C1 (stereo unspecified)	22.5% (inactive)
Cc1cc(S(=O)(=O)N2CCN(c3ccccc3O)CC2)c(C)s1	5.21% (inactive)
O=C(Cn1cc(C(=O)C(F)(F)F)c2cc(Br)ccc21)N1CCOCC1	7.56% (inactive)
C=CCN(CC=C)C(=O)Nc1cc(Cl)ccc1OC	15.5% (inactive)
COc1ccc(C(=O)/C=C/Nc2ccc([N+](=O)[O-])cc2C)c(OC)c1	26.8% (inactive)
COc1ccc2c(c1)c1ncn(CCCN3CCOCC3)c(=O)c1n2C	1.07% (inactive)
COc1cc(NC2c3ncccc3C(=O)N2Cc2ccco2)cc(OC)c1 (stereo unspecified)	7.75% (inactive)

Structure (SMILES)	inhibition
O=C(OCC1CC(c2ccccn2)=NO1)c1ccc(Br)cc1 (stereo unspecified)	9.31% (inactive)
COc1ccc(C)cc1S(=O)(=O)N(C)CC(=O)N1CCCCC1	-0.62% (inactive)
Cc1cc(NC(=O)CSc2n[nH]c(N)n2)no1	14.1% (inactive)
C=CCOc1c(Br)cc(CNn2nnnc2N)cc1OC	3.16% (inactive)
CCOC(=O)c1ccc(NC(=S)NCC(O)c2ccccc2)cc1 (stereo unspecified)	4.17% (inactive)
Cc1ccc(S(=O)(=O)N(C)CCCC(=O)Nc2cc(C)ccc2C)cc1	-2.3% (inactive)
COc1ccc2cc(CN(CCO)C(=O)c3ccccc3F)c(=O)[nH]c2c1	12.6% (inactive)
Clc1ccc(-c2nnc(-c3ccco3)o2)cc1	6.81% (inactive)
CC(C)(C)NC(=O)NC(=O)CSc1ncn[nH]1	6.43% (inactive)
CC(Oc1ccc(Cl)cc1Cl)C(=O)N(Cc1ccco1)C1CCS(=O)(=O)C1 (stereo unspecified)	33.5% (inactive)
O=C(c1ccccc1F)N1CCN(c2ccccc2F)CC1	27.8% (inactive)
O=C(Nc1nc(-c2ccccc2)c(-c2ccccc2)s1)c1ccc(S(=O)(=O)N(CCCl)CCCl)cc1	-7.24% (inactive)
CCOC(=O)CCc1nc2ccccc2[nH]c1=O	15.7% (inactive)
CCCOc1ccc(/C(O)=C2/C(=O)C(=O)N(CCCn3ccnc3)C2c2ccco2)cc1 (stereo unspecified)	0.88% (inactive)
COc1ccc(C2=NNC(c3cccs3)=Nc3ccc(OC)cc32)cc1	17.8% (inactive)
COC(=O)c1c(NC(=O)C2COc3ccccc3O2)sc2c1CCN(Cc1ccccc1)C2 (stereo unspecified)	25.5% (inactive)
CCOC(=O)c1sc2nc(CSc3nc4ccccc4n3CC)[nH]c(=O)c2c1C	-2.72% (inactive)
COc1ccc(NC(=O)c2ccc(CNc3c(NC4CCCCC4)c(=O)c3=O)cc2)cc1OC	3.32% (inactive)
CCN1c2ccccc2-c2nc3ccccc3n2C1c1cccnc1 (stereo unspecified)	1.05% (inactive)
COC(=O)c1cc2sc(Cl)cc2n1CC(=O)Nc1cccc(SC)c1	2.57% (inactive)
CCCCN(C(=O)c1cc(OC)c(OC)c(OC)c1)C1=CC2CCC(C1)N2C (stereo unspecified)	8.59% (inactive)
COc1ccc(OC)c2sc(NC(=O)CCS(=O)(=O)c3ccccc3)nc12	5.59% (inactive)
O=C(O)/C=C/c1ccc2ccccc2n1	-2.31% (inactive)
